Where two headings read alike, the source gives them in different places.
Key:
[1] = target: T1, USP8^CD (purified catalytic domain of USP8) (Homo sapiens, UniProt P40818); assay: Inhibition of purified USP8^CD enzymatic activity (Ub-AMC or Ub-Rho substrate); assay type: biochemical; details: for inhibition at 1 µM: 1 μM compound; for inhibition at 5 µM: 5 μM compound; for inhibition at 25 µM: 25 μM compound; for inhibition at 50 µM: 50 μM compound; for inhibition at 0.01 µM: 0.01 μM compound; for inhibition at 0.05 µM: 0.05 μM compound; for inhibition at 0.1 µM: 0.1 μM compound; for inhibition at 0.5 µM: 0.5 μM compound; for inhibition at 10 µM: 10 μM compound; for IC50: read-out: IC50 USP8 CD
T1 construct: the purified catalytic domain of USP8 (USP8^CD, in-house purified); made in house; host or cells: E. coli BL21 Gold
T1 sequence (P40818 777-1109 limits assumed): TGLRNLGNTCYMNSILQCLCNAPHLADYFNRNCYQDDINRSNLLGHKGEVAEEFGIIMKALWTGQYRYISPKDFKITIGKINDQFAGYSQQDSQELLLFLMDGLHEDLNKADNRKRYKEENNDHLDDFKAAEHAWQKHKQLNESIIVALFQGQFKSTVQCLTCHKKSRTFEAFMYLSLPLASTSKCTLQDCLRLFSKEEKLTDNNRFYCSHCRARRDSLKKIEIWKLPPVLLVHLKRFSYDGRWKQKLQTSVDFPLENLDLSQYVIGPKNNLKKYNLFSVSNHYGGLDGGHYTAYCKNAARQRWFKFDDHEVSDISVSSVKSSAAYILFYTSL
Description: (§1) USP2CD or USP8CD were expressed in E. coli BL21 Gold. Cells were grown in LB Miller to mid-log phase and induced by addition of 0.5 mM IPTG for USP2CD for 5 h at 20° C., while 1 mM IPTG was added for USP8CD for 3 h at 37° C. Then, cells were harvested and frozen at −80° C.
For His-tagged USP8CD, cells were resuspended in buffer A (50 mM TRIS pH 8.0, 500 mM NaCl, 2 mM Imidazole) and lysed using a sonicator. The lysate was clarified by centrifugation and applied to Ni Sepharose6 Fast Flow resin (GE Healthcare). The resin was sequentially washed first with buffer A containing 10 mM Imidazole then with buffer A containing 20 mM Imidazole, and finally with buffer A containing 50 mM Imidazole. Protein sample was eluted from the resin using buffer A containing 300 mM Imidazole. The eluted protein was buffer exchanged by gel-filtration on a Superdex 200 10/300 GL column (GE Healthcare) equilibrated in Buffer B (20 mM HEPES pH 7.5, 300 mM NaCl, 2 mM dithiothreitol (DTT)).
(§2) Enzymatic assay was performed in a HEPES buffer (50 mM pH7.6 1 mM DTT, 2% glycerol, 0.5 mM EDTA) or in a Tris buffer (40 mM pH7.4 1 mM DTT, 5% glycerol, 0.05 mg/ml BSA) respectively, following manufacturer's instructions. Compounds were added to the reaction mixture just prior to the substrate. The enzymatic reaction kinetics was monitored through the apparition of fluorescence due to the hydrolysis of the peptidyl Ub-AMC or Ub-Rho bound over 20 or 30 minutes.
(§3) Medium value out of duplicates is reported.

[2] = target: T2, USP2^CD (purified catalytic domain of USP2) (Homo sapiens, UniProt O75604); assay: Inhibition of purified USP2^CD enzymatic activity (Ub-AMC or Ub-Rho substrate); assay type: biochemical; details: for inhibition at 1 µM: 1 μM compound; for inhibition at 5 µM: 5 μM compound; for inhibition at 25 µM: 25 μM compound; for inhibition at 50 µM: 50 μM compound; for inhibition at 0.01 µM: 0.01 μM compound; for inhibition at 0.05 µM: 0.05 μM compound; for inhibition at 0.1 µM: 0.1 μM compound; for inhibition at 0.5 µM: 0.5 μM compound; for inhibition at 10 µM: 10 μM compound; for IC50: Ub-AMC substrate at 1 μM, Table 2b, read-out: IC50 USP2 CD
T2 construct: The purified catalytic domain of USP2 (USP2^CD, in-house purified); His; made in house; host or cells: E. coli BL21 Gold
T2 sequence (O75604 267-599 limits assumed): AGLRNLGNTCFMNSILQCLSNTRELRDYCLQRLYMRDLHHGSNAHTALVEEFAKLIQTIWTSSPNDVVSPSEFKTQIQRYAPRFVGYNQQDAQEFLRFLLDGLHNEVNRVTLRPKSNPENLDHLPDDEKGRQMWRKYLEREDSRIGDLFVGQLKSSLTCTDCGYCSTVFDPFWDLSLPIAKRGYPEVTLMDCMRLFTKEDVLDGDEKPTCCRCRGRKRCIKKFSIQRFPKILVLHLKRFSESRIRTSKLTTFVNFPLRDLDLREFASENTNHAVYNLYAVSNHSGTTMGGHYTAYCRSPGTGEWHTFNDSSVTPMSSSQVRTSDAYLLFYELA
Description: as §1
For His-tagged USP2CD, cells were resuspended in buffer C (10 mM TRIS pH 8.0, 100 mM NaCl, 10 mM Imidazole) and lysed using a sonicator. The lysate was clarified by centrifugation and applied to Ni Sepharose6 Fast Flow resin (GE Healthcare). The resin was sequentially washed with buffer C, then with buffer C containing 50 mM Imidazole. Protein sample was eluted from the resin using buffer C containing 250 mM Imidazole. The eluted protein was buffer exchanged by gel-filtration on a Superdex 200 10/300 GL column (GE Healthcare) equilibrated in Buffer D (15 mM Bis-TRIS pH 6.0, 100 mM NaCl, 1 mM dithiothreitol (DTT)).
as §2, §3

[3] = Ub-AMC substrate at 1 μM, Table 2b

Compound	inhibition at 1 µM ([1]; Table 1b)	inhibition at 5 µM ([1]; Table 1b)	inhibition at 25 µM ([1]; Table 1b)	inhibition at 50 µM ([1]; Table 1b)	inhibition at 1 µM ([2]; Table 1b)	inhibition at 5 µM ([2]; Table 1b)	inhibition at 25 µM ([2]; Table 1b)	inhibition at 50 µM ([2]; Table 1b)	inhibition at 0.01 µM ([1]; Table 1d)	inhibition at 0.05 µM ([1]; Table 1d)	inhibition at 0.1 µM ([1]; Table 1d)	inhibition at 0.5 µM ([1]; Table 1d)	inhibition at 1 µM ([1]; Table 1d)	inhibition at 5 µM ([1]; Table 1d)	inhibition at 10 µM ([1]; Table 1d)	IC50 [1, 3]	inhibition at 0.01 µM ([2]; Table 1c)	inhibition at 0.05 µM ([2]; Table 1c)	inhibition at 0.1 µM ([2]; Table 1c)	inhibition at 0.5 µM ([2]; Table 1c)	other results
O=C1c2ccccc2C(=O)c2nc(CS(=O)(=O)c3cccc(C(F)(F)F)c3)c(CS(=O)(=O)c3cccc(C(F)(F)F)c3)nc21 [OVM17]	25%	33%	68%	85%	-11%	9%	27%	25%													
CCCCCS(=O)(=O)Cc1nc2c(nc1CS(=O)(=O)CCCCC)C(=O)c1ccccc1C2=O [VIN6077]	54%	94%	101%	100%	24%	51%	63%	76%	19%	-2%	26%	26%	44%	100%	91%	1200 nM	-11%	-16%	-13%	11%	inhibition at 1 µM ([2]; Table 1c): -17%; inhibition at 5 µM ([2]; Table 1c): 20%; inhibition at 10 µM ([2]; Table 1c): 27%; IC50 [2]: > 10000 nM
O=C1c2ccccc2C(=O)c2nc(CS(=O)(=O)c3cccc(F)c3)c(CS(=O)(=O)c3cccc(F)c3)nc21 [OVM13]	60%	88%	102%	94%	17%	48%	66%	41%	-22%	3%	-9%	44%	65%	76%	35%	400 nM	9%	-20%	-32%	-3%	IC50 ([1]; Ub-Rhodamine substrate at 0.1 μM, Table 2c): 400 nM; inhibition at 1 µM ([2]; Table 1c): -6%; inhibition at 5 µM ([2]; Table 1c): 10%; inhibition at 10 µM ([2]; Table 1c): 1%; IC50 [2]: > 10000 nM
O=C1c2ccccc2C(=O)c2nc(CS(=O)(=O)c3ccc(F)c(F)c3F)c(CS(=O)(=O)c3ccc(F)c(F)c3F)nc21 [OVM23]	83%	92%	100%	103%	69%	53%	94%	97%	-5%	12%	24%	20%	34%	74%	80%	2200 nM	-20%	-26%	-22%	16%	inhibition at 1 µM ([2]; Table 1c): 18%; inhibition at 5 µM ([2]; Table 1c): -1%; inhibition at 10 µM ([2]; Table 1c): 4%; IC50 [2]: > 10000 nM

— patent US11306063B2, “Heterocyclic naphthoquinones derivatives for use in the treatment of cancers including Cushing disease” (Commissariat a l'Energie Atomique et aux Energies …, priority 2016, dated 2022)
